Patent US12540150B1, “Fluorogenic probe using a Mislow-Evans rearrangement for real-time imaging of hydrogen peroxide” (University of Pittsburgh—Of the Commonwealth System of …, priority 2020, dated 2026)
Values joined by “and” are separate entries in the source; they are usually repeats but may differ in a detail not shown here. Equal values may be shown once.

Assays:
[1] = Selectivity of 1: reaction with ·OH; details: for Fluorescence: 40 min minus 0 min
Description: The reactivity of 1 with ·OH was also investigated. ·OH was generated through the reaction of FeSO4·7H2O with H2O2. A solution of 100 μM 1 in ethanol (20 μL) was added to 5:95 methanol/50 mM phosphate pH 7 buffer (140 μL). Water or 104 U/mL catalase (20 μL) was added to the mixture. FeSO4·7H2O (27.4 mg) was added to ultrapure water (2.00 mL). This solution was diluted to 20 μM, 200 μM, and 2.00 mM. H2O2 was diluted to 200 μM and 2.00 mM. Equal volumes of FeSO4·7H2O solution and H2O2 were added together, and an aliquot (20 μL) was immediately transferred to the solution containing 1. The fluorescence intensity was measured immediately and again after incubation at 25° C. for 40 min. […] The Fluorescence values in Table 8 are the fluorescence at 40 min minus the fluorescence at 0 min.

[2] = tested on: zebrafish; test: Zebrafish tail wound-healing model imaging of H2O2; type: in vivo; details: three-day post-fertilization zebrafish embryos, 1 mM 1 for 2 h
Source text: H2O2 has been recognized as a critical signaling molecule for the recruitment of immune cells for wound regeneration. To date, only genetically encoded protein-based fluorescent probes have been able to illuminate the spatiotemporal dynamics of H2O2 for wound healing models in zebrafish. It was hypothesized that our method might be rapid enough to match the protein-based imaging in vivo. As a platform to test this hypothesis, 1 was applied to image a zebrafish tail wound-healing model.
Three-day post-fertilization zebrafish embryos were removed from their chorion and allowed to swim in 1 mM 1 for 2 h (0.1% v/v DMSO), leading to effective dye loading. Following this, the fish were anesthetized and mounted in agar. The tail fins were clipped with a razor blade.
Fluorescence images were obtained every 60 s for 60 min using an inverted Nikon TiE fluorescent microscope (Nikon Inc., Melville, NY) equipped with a 20× 0.75 NA lens and NIS Elements Software. The sample was excited using the 470 nm line of a Lumencor diode-pumped light engine (SpectraX, Lumencor Inc., Beaverton OR), and the fluorescence signals were detected using an ET-GFP filter set (Chroma Technology Corp) and ORCA-Flash 4.0 sCMOS camera (HAMAMATSU Corporation, Bridgewater, NJ).

[3] = Selectivity of 1: reaction with ^1O2; details: for Fluorescence: 40 min minus 0 min
Description: Probe 1 was titrated with NaMoO4 and H2O2 to determine whether ^1O2 reacted with the probe 1. A solution of 100 μM 1 in ethanol (20 μL) was added to 5:95 methanol/50 mM phosphate pH 7 buffer (140 μL). Water, 1 mM sodium azide, or 104 U/mL catalase (20 μL) was added to the mixture. NaMoO4·2H2O (11.1 mg) was added to ultrapure water (2.00 mL). This solution was diluted to 20 μM, 200 μM, and 2.00 mM. H2O2 was diluted to 200 μM and 2.00 mM. Equal volumes of NaMoO4 solution and H2O2 were added together, and an aliquot (20 μL) was immediately transferred to the solution containing 1. The fluorescence intensity was measured immediately and again after incubation at 25° C. for 40 min. A large fluorescence increase was observed only in the samples containing […] of both Na2MoO4 and H2O2(FIG. 16 and Table 7). […] 10^4 UmL^−1 catalase was added to the solutions to verify that 1 indeed responded to excess H2O2 that had not reacted with the Na2MoO4. The addition of catalase abolished the fluorescence signal observed in the presence of high concentrations of H2O2(FIG. 16 and Table 7). The fluorescence values in Table 7 are the fluorescence at 40 min minus the fluorescence at 0 min.

[4] = Response of probe 1 to H2O2 at various pHs; details: for Fluorescence: 23° C., 20 min
Description: The probe's response to H2O2 in the pH 4-7.3 range was studied to determine whether this technology would work in acidic and neutral intracellular environments, such as lysosomes (pH 5), Golgi apparatus (pH 6.4-6.8), mitochondria (pH 6.9-8.0), and cytoplasm (pH 7.1-7.6). A solution of 50 mM phosphate pH 7.3 buffer was treated with 1.0 N HCl to adjust the pH to 7.0, 6.5, 5.9, 5.4, 4.5, or 4.1. The concentration of the resulting buffers was adjusted with water to 25 mM phosphate buffer. Solutions of 25 mM phosphate pH 7.3, 7.0, 6.5, 5.9, 5.4, 4.5, or 4.1 buffer ([…]) and 100 μM probe 1 in MeOH were treated with 100 μM, 10 μM or 0 μM H2O2 in water. The solutions were allowed to incubate at 23° C. for 20 min prior to measuring the fluorescence.

Oc1ccc2c(c1)Oc1cc(O/C=C/C[Se]c3ccccc3)ccc1[C@@]21OCc2ccccc21 [Compound 1, (S,E)-6′-((3-(Phenylselanyl)prop-1-en-1-yl)oxy)-3H-spiro[isobenzofuran-1,9′-xanthen]-3′-ol]
reaction with FeSO4 or ·OH [1]: neither FeSO4 nor the ·OH reacted with the probe | Fluorescence ([1]; catalase, FeSO4 0 μM, 0 μM H2O2): 31,506 and 41,340 and 38,159 | Fluorescence ([1]; catalase, FeSO4 1 μM, 0 μM H2O2): 28,688 and 24,359 and 45,310 | Fluorescence ([1]; catalase, FeSO4 1 μM, 100 μM H2O2): 38,285 and 34,591 and 26,790 | Fluorescence ([1]; catalase, FeSO4 10 μM, 0 μM H2O2): 24,822 and 33,920 and 47,376 | Fluorescence ([1]; catalase, FeSO4 10 μM, 100 μM H2O2): 32,300 and 42,724 and 50,635 | Fluorescence ([1]; catalase, FeSO4 100 μM, 0 μM H2O2): 35,828 and 18,194 and 20,321 | Fluorescence ([1]; catalase, FeSO4 100 μM, 10 μM H2O2): 20,486 and 26,765 and 15,423 | Fluorescence ([1]; catalase, FeSO4 100 μM, 100 μM H2O2): 46,232 and 46,921 and 52,666 | Fluorescence ([1]; no additive, FeSO4 0 μM, 0 μM H2O2): 50,173 and 48,124 and 44,143 | Fluorescence ([1]; no additive, FeSO4 0 μM, 10 μM H2O2): 43,929 and 46,186 and 43,989 | Fluorescence ([1]; no additive, FeSO4 0 μM, 100 μM H2O2): 85,271 and 94,742 and 95,713 | Fluorescence ([1]; no additive, FeSO4 1 μM, 0 μM H2O2): 44,775 and 42,847 and 41,775 | Fluorescence ([1]; no additive, FeSO4 1 μM, 10 μM H2O2): 49,425 and 47,262 and 44,251 | Fluorescence ([1]; no additive, FeSO4 1 μM, 100 μM H2O2): 86,594 and 103,905 and 91,684 | Fluorescence ([1]; no additive, FeSO4 10 μM, 0 μM H2O2): 43,299 and 42,365 and 40,214 | Fluorescence ([1]; no additive, FeSO4 10 μM, 10 μM H2O2): 42,933 and 40,908 and 38,283 | Fluorescence ([1]; no additive, FeSO4 10 μM, 100 μM H2O2): 91,049 and 90,712 and 94,948 | Fluorescence ([1]; no additive, FeSO4 100 μM, 0 μM H2O2): 32,709 and 41,351 and 31,615 | Fluorescence ([1]; no additive, FeSO4 100 μM, 10 μM H2O2): 56,260 and 46,281 and 43,358 | Fluorescence ([1]; no additive, FeSO4 100 μM, 100 μM H2O2): 99,384 and 99,391 and 95,778 | time of maximum fluorescence after tail snipping [2]: 10 to 20 min | cause of fluorescence increase (reaction with ^1O2) [3]: not by ^1O2 itself | Fluorescence ([3]; NaN3, NaMoO4 0 μM, 0 μM H2O2): 47,427 and 27,816 and 33,822 | Fluorescence ([3]; NaN3, NaMoO4 0 μM, 10 μM H2O2): 22,037 and 25,574 and 26,509 | Fluorescence ([3]; NaN3, NaMoO4 0 μM, 100 μM H2O2): 86,779 and 47,879 and 71,128 | Fluorescence ([3]; NaN3, NaMoO4 1 μM, 0 μM H2O2): 17,056 and 15,590 and 28,737 | Fluorescence ([3]; NaN3, NaMoO4 1 μM, 10 μM H2O2): 47,687 and 30,921 and 55,460 | Fluorescence ([3]; NaN3, NaMoO4 1 μM, 100 μM H2O2): 75,276 and 58,618 and 52,801 | Fluorescence ([3]; NaN3, NaMoO4 10 μM, 0 μM H2O2): 48,985 and 26,189 and 39,286 | Fluorescence ([3]; NaN3, NaMoO4 10 μM, 10 μM H2O2): 41,011 and 44,837 and 41,481 | Fluorescence ([3]; NaN3, NaMoO4 10 μM, 100 μM H2O2): 128,720 and 99,199 and 137,922 | Fluorescence ([3]; NaN3, NaMoO4 100 μM, 0 μM H2O2): 41,150 and 60,360 and 31,422 | Fluorescence ([3]; NaN3, NaMoO4 100 μM, 10 μM H2O2): 36,764 and 62,417 and 61,596 | Fluorescence ([3]; NaN3, NaMoO4 100 μM, 100 μM H2O2): 427,359 and 459,433 and 473,881 | Fluorescence ([3]; catalase, NaMoO4 1 μM, 100 μM H2O2): 54,776 and 34,302 and 31,904 | Fluorescence ([3]; catalase, NaMoO4 10 μM, 100 μM H2O2): 66,499 and 39,161 and 54,221 | Fluorescence ([3]; catalase, NaMoO4 100 μM, 100 μM H2O2): 137,047 and 103,725 and 102,097 | Fluorescence ([3]; no additive, NaMoO4 0 μM, 0 μM H2O2): 59,711 and 30,413 and 38,407 | Fluorescence ([3]; no additive, NaMoO4 0 μM, 100 μM H2O2): 48,948 and 86,970 and 68,803 | Fluorescence ([3]; no additive, NaMoO4 1 μM, 0 μM H2O2): 36,829 and 38,478 and 40,456 | Fluorescence ([3]; no additive, NaMoO4 1 μM, 10 μM H2O2): 27,103 and 23,437 and 25,142 | Fluorescence ([3]; no additive, NaMoO4 1 μM, 100 μM H2O2): 64,673 and 74,322 and 79,262 | Fluorescence ([3]; no additive, NaMoO4 10 μM, 10 μM H2O2): 33,243 and 34,233 and 26,543 | Fluorescence ([3]; no additive, NaMoO4 10 μM, 100 μM H2O2): 113,217 and 132,450 and 119,014 | Fluorescence ([3]; no additive, NaMoO4 100 μM, 0 μM H2O2): 24,734 and 26,617 and 17,702 | Fluorescence ([3]; no additive, NaMoO4 100 μM, 10 μM H2O2): 38,768 and 55,874 and 53,722 | Fluorescence ([3]; no additive, NaMoO4 100 μM, 100 μM H2O2): 468,686 and 476,166 and 482,448 | pH dependence of fluorescence signals with H2O2 ([4]; pH 4-7.3 range): higher when the pH was above 5.4 | Fluorescence ([4]; pH 4.10, 0 μM H2O2): 28,470 and 25,037 and 28,661 | Fluorescence ([4]; pH 4.10, 1 μM H2O2): 35,884 and 30,492 and 30,471 | Fluorescence ([4]; pH 4.10, 10 μM H2O2): 51,632 and 54,097 and 52,472 | Fluorescence ([4]; pH 4.50, 0 μM H2O2): 29,770 and 29,064 and 29,069 | Fluorescence ([4]; pH 4.50, 1 μM H2O2): 40,599 and 31,790 and 33,283 | Fluorescence ([4]; pH 4.50, 10 μM H2O2): 55,577 and 54,961 and 56,315 | Fluorescence ([4]; pH 5.40, 0 μM H2O2): 56,192 and 56,334 and 52,671 | Fluorescence ([4]; pH 5.40, 1 μM H2O2): 61,365 and 63,294 and 60,943 | Fluorescence ([4]; pH 5.40, 10 μM H2O2): 106,516 and 107,311 and 103,354 | Fluorescence ([4]; pH 5.90, 0 μM H2O2): 87,499 and 89,708 and 90,424 | Fluorescence ([4]; pH 5.90, 1 μM H2O2): 113,703 and 111,368 and 107,545 | Fluorescence ([4]; pH 5.90, 10 μM H2O2): 167,836 and 187,633 and 154,515 | Fluorescence ([4]; pH 6.50, 0 μM H2O2): 155,151 and 183,747 and 149,421 | Fluorescence ([4]; pH 6.50, 1 μM H2O2): 203,661 and 188,050 and 184,986 | Fluorescence ([4]; pH 6.50, 10 μM H2O2): 332,896 and 341,948 and 335,544 | Fluorescence ([4]; pH 7.00, 0 μM H2O2): 199,101 and 207,136 and 187,676 | Fluorescence ([4]; pH 7.00, 1 μM H2O2): 247,464 and 221,499 and 229,530 | Fluorescence ([4]; pH 7.00, 10 μM H2O2): 389,464 and 369,467 and 390,006 | Fluorescence ([4]; pH 7.30, 0 μM H2O2): 189,898 and 183,424 and 169,054 | Fluorescence ([4]; pH 7.30, 1 μM H2O2): 228,368 and 208,913 and 186,665 | Fluorescence ([4]; pH 7.30, 10 μM H2O2): 373,555 and 388,584 and 401,912
